Data reported in patent publication US20070275086A1, “Use of Increased Molecular-Weight Hirudin as an Anticoagulant in Extracorporeal Kidney Replace Therapy” (Max-Planck-Gesellschaft Zur Forderung Der Wissenschaften E.V, priority 1999, published 2007).
Values joined by “and” are separate entries in the source; they are usually repeats but may differ in a detail not shown here. Equal values may be shown once.

Experiments:
[1] = tested on: HIT II-positive patients; conditions: human, in vivo
Procedure: Patient was anticoagulated with 6900 IU heparin. […] The patient complained during dialysis and also in the dialysis-free intervals of problems relating to blood pressure and in some cases mild states of confusion. […] The average number of blood platelets before and after haemodialysis was between 350 and 400/nl.
The patient was transferred to PEG-hirudin according to the following dosage scheme: first haemodialysis: 0.1 mg/kg as a bolus, second to 10th haemodialysis: 0.05 mg/kg PEG hirudin, 11th haemodialysis and beyond: 0.025 mg/kg. […] The blood level of PEG hirudin fluctuated between 0.4 μg/ml before the start of haemodialysis and 1.0 μg/ml after dialysis. The filling volumes with the Type GFS plus 11 dialysers (GAMBRO) were as follows: under heparin application—the mean value for the last three heparin-anticoagulated dialyses was 87 ml; the filling volume during PEG-hirudin treatment for HD 5-HD 6 was 96 ml.
Creatinine clearance was less than 12 ml/min. The anticoagulant used during haemodialysis was un-fractionated heparin. Additionally, the dialysers (H120, Braun-Melsungen) were “primed” before the start of haemodialysis with 500 units of heparin. The patient received 3000 units of heparin as a bolus and 3000 units of heparin as an infusion during the 3.5 hour haemodialysis. […]

[2] = tested on: HIT II antibodies
Procedure: Patient. […] Patient was anticoagulated with 6900 IU heparin. […] The patient complained during dialysis and also in the dialysis-free intervals of problems relating to blood pressure and in some cases mild states of confusion. […] The average number of blood platelets before and after haemodialysis was between 350 and 400/nl.
Creatinine clearance was less than 12 ml/min. The anticoagulant used during haemodialysis was un-fractionated heparin. Additionally, the dialysers (H120, Braun-Melsungen) were “primed” before the start of haemodialysis with 500 units of heparin. The patient received 3000 units of heparin as a bolus and 3000 units of heparin as an infusion during the 3.5 hour haemodialysis. […] The patient complained of tingling in the extremities, a feeling of restlessness and intermittent state of confusion. Between the dialysis sessions, the patient complained of headaches, malaise and loss of appetite. They stated that the people around them complained that they were irritable and seemed under stress.
This patient had been dialysed for 5 months initially with un-fractionated heparin, then with fractionated heparin (Enoxaparin). Enoxaparin was applied in a dose of 20 mg directly before the start of the dialysis. After an incorrect dialysis (rise in pressure before the dialyser) over the dialysis period of 4.5 h, an additional 10 mg Enoxaparin were applied via an indwelling infusion pump placed before the dialyser (F 50 S, Fresenius). The patient indicated severe shortness of breath, a decline in circulation and blood pressure to base values of 80/30 mmHg shortly after the start of haemodialysis.

[3] = tested on: blood platelets; conditions: human, in vivo
From the text: Patient one. […] Patient was anticoagulated with 6900 IU heparin.
The objective and subjective findings which point towards an HIT II condition were no longer evident after the changeover to anticoagulation with PEG-hirudin. The blood platelet counts, which had constantly shown values above 400/nl during the last dialyses under heparin, fell during the PEG-hirudin haemodialysis to the range from 320 to 350/nl; a trend towards continued normalisation was clearly demonstrable.
The patient was then transferred to PEG-hirudin.

[4] = Dialyser filling volume and clotting in the extracorporeal circuit at end of haemodialysis; assay type: in vivo, human
From the text: Following this, the patient was transferred to PEG-hirudin.

| HIT II-specific diagnosis (HIPA-test) [2] | tests for HIT-positive antibodies (HIPA and ELISA) [2] | average number of blood platelets before and after haemodialysis [3] | blood platelet counts [3] | tests for HIT II antibodies (HIPA test and platelet-factor-4 ELISA) [2] | blood platelets during haemodialysis, reduced down to [3] | Substance | fall in blood pressure at the start of haemodialysis [1] | filling volume of dialyser ([4]; patient one, Type GFS plus 11 dialysers (GAMBRO), specified 100 ml, heparin: mean of last three dialyses, PEG-hirudin: HD 5-HD 6) | filling volume at the end of haemodialysis ([4]; patient two, H120 dialysers, heparin: last two haemodialyses, PEG-hirudin: after the 4th haemodialysis) | blood pressure base values shortly after the start of haemodialysis [1] |
| --- | --- | --- | --- | --- | --- | --- | --- | --- | --- | --- |
| positive result | strongly positive | 350 to 400 nL⁻¹ | above 400 /nl | – | – | heparin | 35 mmHg | 87 mL | 71 mL and 73 mL | – |
| – | – | – | – | positive | 100 nL⁻¹ | Enoxaparin | – | – | – | 80/30 |
